In patent EP1129112B1, “PEPTIDES CONTAINING A CHOLESTEROL RECOGNITION SEQUENCE AND THEIR USES” (Georgetown University, priority 1998, dated 1999):

Columns and labels:
isolated mitochondria = conditions: cited from earlier work
PBR = biological target: T1, PBR (Mus musculus, UniProt P50637); experiment: Ligand-induced release of 3H-cholesterol from membranes of IPTG-induced transformed bacteria; assay type: biochemical; conditions: Fig. 3F
T1 construct: inferred from vector pET15b with insertion at NdeI) (N); made in house; host or cells: Escherichia coli BL21(DE3), IPTG-induced; whole bacteria or bacterial membranes
Description: ^3H-Cholesterol uptake by E. coli cells was examined using the indicated concentrations of control or IPTG-treated transformed bacteria incubated in the presence of 6.7 nM ^3H-cholesterol (50.0 Ci/mmol) for 60 min at 37°C. Specific cholesterol uptake is defined as IPTG-induced minus basal values, E. coli protoplasts were prepared from cells grown in LB at 37°C to the logarithmic phase of growth and centrifuged at 10,000g for 5 min. The cells were washed twice in 10mM Tris-HCl buffer [pH8.0] and the pellet was resuspended in a solution containing 20%(w/w) sucrose and 0.1M Tris-HCl [pH8.0]. The cells were then suspended in 1ml of buffer per 10 OD450 and mixed. Within 1 min lysozyme was added from a 2mg/ml stock solution in distilled water to a final concentration of 100 ug/ml at 37°C, and stirring was continued for the next 12 min. The cell suspension was diluted 1:10 with 0.1M Na2EDTA prewarmed to 37°C. Continuous stirring and slow dilution over 2.5 min prevented cell lysis. More than 99% of the cells became spherical within 10 minutes (Weiss, R. L. 1978, Meth. Cell Biol. 20:141-147).

recombinant mPBR = biological target: T2, recombinant mPBR (Mus musculus, UniProt P50637); experiment: 3H-PK 11195 radioligand binding to IPTG-induced recombinant PBR in E. coli (Scatchard analysis); conditions: 3H-PK 11195 binding, IPTG-induced E. coli transfected with mouse PBR cDNA
T2 construct: inferred from vector pET15b with insertion at NdeI) (N); made in house; host or cells: Escherichia coli BL21(DE3), IPTG-induced; whole bacteria or bacterial membranes
Description: Binding specificity of the IPTG-induced PBR in E. coli was determined in binding studies where specific binding of ^3H-PK 11195 (1.0 nM) was measured in the presence of the indicated concentrations of the indicated ligands.
Radioligand binding assays- ^3H-1- (2-chlorophenyl)-N-methyl-N-(1-methyl-propyl)-3-isoquinolinecarboxamide (PK 11195) binding studies were performed as we previously described (Papadopoulos, V. et al. 1990, J. Biol. Chem. 265: 3772-3779; Garnier, M. et al. 1994, Mol. Pharm. 45:201-211). The dissociation constant (Kd) and the number of binding sites (Bmax) were determined by Scatchard plot analysis of the data using the LIGAND program (Munson, P. J. and Rodbard, D. 1980, Anal. Biochem. 107:220-239).

TTN: triakontatetrapeptide, naturally occurring processing product of DBI (KTKPSDEEMLFIYGHYKQATVGDINTERPGMLDF; Triakontatetraneuropeptide; UniProt P07108 17-50, looked up, fragment)
ability to mimic the effect of DBI on mitochondrial steroidogenesis (isolated mitochondria): able to mimic the effect of DBI

CCC(C)N(C)C(=O)c1cc2ccccc2c(-c2ccccc2Cl)n1 (centres unmarked) [PK 11195, 1-(2-chlorophenyl)-N-methyl-N-(1-methyl-propyl)-3-isoquinolinecarboxamide]
release of cholesterol from cholesterol-loaded bacterial membranes (PBR): cholesterol was liberated from the membranes | Bmax (recombinant mPBR): 0.23 pmol/mg protein | Kd (recombinant mPBR): 1.1 nM

ODN: octadecaneuropeptide (DBI33-50) (KQATVGDINTERPGMLDF; Octadecaneuropeptide; UniProt P07108 33-50, looked up, fragment)
ability to mimic the effect of DBI on mitochondrial steroidogenesis (isolated mitochondria): not
